From US20260053935A1, “METHODS AND COMPOSITIONS FOR TREATING CANCER WITH CANCER-BINDING ADJUVANTS” (THE UNIVERSITY OF CHICAGO, priority 2022, published 2026)
Values belong to the compound of their own block, whether it stands above or below them.

Assays:
[1] = tested on: pro-inflammatory cytokines; experiment: Serum cytokine analysis in MC38 tumor-bearing mice; format: in vivo; details: i.t. on a TLR7 equimolar basis; 6 hours after injection; vs PBS or vehicle control
Description: As a comparison, other mice were injected with TLR7/8 agonist telratolimod (3M-052, MedChemExpress, cat. no. HY-109104) in 10% DMSO, 40% PEG300 (Sigma Aldrich, cat. no. 8.07484), and 5% Tween-80 in PBS (Sigma Aldrich, cat. no. P8074) (with additional vehicle control mice). Six hours after injection, plasma was collected via submandibular bleed and analyzed for pro-inflammatory cytokines using LEGENDplex Mouse Inflammation Panel Assay (BioLegend, cat. no. 740446).

[2] = tested on: RAW 264.7 macrophages; experiment: Cytotoxicity to RAW 264.7 macrophages (Zombie Aqua viability dye); format: cell-based; details: 24 hours after treatment; vs media alone
[3] = In vivo polymer biodistribution (tissue homogenate fluorescence); details: cytarabine one day before polymer i.v.
Description: To achieve this, they inoculated normal B6 mice with C1498. After one day, one group of mice received a dose of cytarabine. […] Eight hours after this injection, mice were sacrificed, and tissues were harvested for homogenization and subsequent fluorescence quantification using a microplate reader. Fluorescence values were normalized per mg of tissue.

[4] = tested on: C1498 cells; experiment: In vitro cancer cell binding of dye-labeled polymer to AML cells
Description: Flow cytometric analysis of dye labeled PDS-containing polymers binding to C1498 cells in a (A) polymer dose-dependent manner.
They also investigated the effect of cytarabine pre-treatment on polymer binding, both in a dose and time dependent manner.

systemic inflammatory cytokines (IFN-γ, IL-6, MCP-1, IFN-β, IL-27) [1]: produced significant upregulation
Compound: CCCCCCCCCCCCCCCCCC(=O)NCCCCOn1c(CCCC)nc2c(N)nc3ccccc3c21 [3M-052]

Compound: CCOCc1nc2c(N)nc3ccccc3c2n1CC(C)(C)O [R848]
live cells as a percent of total cells [2]: no significant change from the media alone control wells

Compound: Nc1ccn([C@@H]2O[C@H](CO)[C@@H](O)[C@@H]2O)c(=O)n1 [cytarabine]
effect of cytarabine pre-treatment on tissue biodistribution of polymer [3]: does not significantly alter the tissue biodistribution of polymer | efficiency of polymer binding to C1498 cells after cytarabine pre-treatment (duration) ([4]; cytarabine given too far from polymer treatment): decreases binding efficiency of PDS-containing polymers | efficiency of polymer binding to C1498 cells after cytarabine pre-treatment (dose) ([4]; cytarabine pre-treatment for 4 hours): increased the efficiency of polymer binding in a dose-dependent manner
